Assay: physical and chemical stability under standard stability conditions
Type: physicochemical
Experimental: In another aspect of the present disclosure, the crystalline form DP-9 of Daprodustat which is physically & chemically stable under standard stability conditions like 25° C.-60% RH, 40° C.-75% RH and 2-8° C. for at least 3 months.

Measured: physically & chemically stable for at least

O=C(O)CNC(=O)C1C(=O)N(C2CCCCC2)C(=O)N(C2CCCCC2)C1=O [Form DP-9]
at least 3 months: 2-8° C. | 25° C.-60% RH | 40° C.-75% RH

Source: patent publication US20240368090A1, “SOLID STATE FORMS OF D[…] PROCESS FOR THEIR PREPARATION” (REDDY’S LABORATORIES LIMITED, priority 2023, published 2024)
